“And” between values parts separate entries of the source, which are not always exact repeats. Identical values can stand only once. Like-named read-outs stand apart in the source and are kept apart here.
Key:
[1] = Residual 14C-gentian violet in tissues of cockerels after repeated oral administration (Example 26)
[2] = cited from earlier work
normal coliform bacteria = details: intestinal tract; cited from earlier work
Candida albicans = details: cited from earlier work
[3] = Spectrophotometric determination of gentian violet residue in livers of chickens fed gentian violet (Examples 2 to 24); format: in vivo
Description: This example involves the spectrophotometrical determination of the gentian violet content (as a residue) of poultry tissue.
An acid alcohol solution was prepared by adding 20 ml of concentrated hydrochloric acid to 2,000 ml of 95 percent ethyl alcohol (denatured).
A gentian violet stock solution was prepared as follows: Using the Ainsworth chainomatic analytical balance, 0.104 gm of crystalline gentian violet (USP) was accurately weighed out and quantitatively transferred to a 1000 ml volumetric flask and q.s. to 1000 ml with distilled water. A magnetic stirring bar was inserted into the flask and the gentian violet solution was mixed on a magnetic mixer for 1 hour. This solution contained 100 ug of gentian violet per ml (100 ppm).
Gentian violet-acid alcohol standard solutions were prepared as follows: Five standard dilutions of gentian violet in acid alcohol were prepared and the absorbence (O.D.) for each dilution was determined. The absorbence of the 5 dilutions were plotted on a graph to determine the linearity of the gentian violet curve.
The spectrophotometer was set at 590 mμ and zeroed using an acid alcohol blank. The absorbence of the 5 standard dilutions in the 13 mm cuvette was determined. The O.D. of the 1 ppm dilution in the 13 mm cuvette was recorded for use in calculation of the gentian violet recovery. (If method sensitivity below 0.1 ppm is desired, the O.D. of the 1 ppm standard in the 100 mm cell is recorded and the Beckman D.U. is used to make the determinations.)
A sodium hypochlorite quenching solution was prepared as follows: 0.26 gm. of sodium hypochlorite was weighed into a 250 ml Erlenmeyer flask and q.s. to 100 ml with distilled water. This solution was 0.26 percent NaOCL. If sodium hypochlorite is not available in the laboratory, this solution can be made from any standard household bleaching solution containing sodium hypochlorite (i.e., Clorox) at the 5.25 percent concentration. 1 ml 5.25 percent NaOCL q.s. to 20 ml with distilled water to give 20 ml of 0.26 percent NaOCL.
The tissue samples were prepared by grinding the tissues in a Waring-type blender to reduce the tissues to the smallest particle size possible. Using a Mettler P162-type balance, 5 gm samples of the finely ground tissues were weighed (in triplicate) into Erlenmeyer flasks.
Gentian violet was extracted from tissue samples as follows: 50 ml of acid-alcohol were added (using a graduated glass cylinder) to each of the samples in the flasks. A 3/4" magnetic stirring bar was inserted into each sample. The flasks were stoppered. The samples were placed on the magnetic mixers and mixed for 1 hour. After mixing, the samples were set in the dark to digest for 12 hours (overnight). After 12 hours of digestion the samples were again placed on the magnetic mixer and mixed for 1 hour. The contents of the sample flasks were poured into 60 ml glass centrifuge tubes and centrifuged at 2400 rpm for 10 minutes.
Chromatographic column clearing of the centrifuged samples was achieved as follows: Each column was equipped with a glass stop-cock, if the column was not so equipped. A small glass-wool pledget was inserted firmly in the bottom of the column to fill the bottom curve of the column. 5 to 6 grams of the Alumin AR sorbent was added to each column. The supernatant liquid was carefully decanted from the centrifuge tube into the chromatographic column. A 50 ml beaker was placed under each column. The stop-cock was opened and the first eluant from the column was collected until a minimum of 20 ml was collected. (This first eluant ordinarily was yellow in color but contained the extracted gentian violet.)
Spectrophotometric determination of the gentian violet concentration from the tissue sample was determined as follows: 5 ml of each of the eluants was pipetted into the 13 mm cuvettes. The spectrophotometer was set at 590 mu. The spectrophotometer was zeroed using an acid alcohol blank in the 13 mm cuvette. It was established that all cuvettes were matched. […]

[4] = cited from earlier work; remark: listed apart in the source
[5] = Stability of gentian violet (light, acid, digestive tract pH); format: physicochemical
[6] = cited from earlier work; remark: listed apart in the source
[7] = water, chloroform and ethanol; cited from earlier work
[8] = cited from earlier work; remark: listed apart in the source
[9] = 4 hours after last administration

CN(C)c1ccc(C(=C2C=CC(=[N+](C)C)C=C2)c2ccc(N(C)C)cc2)cc1 [gentian violet, hexamethylpararosaniline chloride]
radioactivity in 5X kidneys relative to 1X kidneys [1, 9]: 4.7 times | radioactivity in 5X livers relative to 1X livers [1, 9]: 2.7 times | concentration by the liver relative to the kidneys ([1]; in vivo): about twice as much | disappearance from one organ versus the other ([1]; livers and kidneys): does not disappear more rapidly from one organ than the other | mean half-life in the two organs at dose levels ([1]; livers and kidneys, 5X and 1X): 32.2 h | absorption ([2]; digestive tract of animals and poultry): essentially non-absorbable | residue in tissue of animals fed the compositions ([2]; in vivo): little or no residue | effect on growth and activity of normal coliform bacteria (normal coliform bacteria): without materially reducing the growth of and activity of the normal coliform bacteria | effect on Candida albicans (Candida albicans): inhibits the growth of and destroys Candida albicans | gentian violet residue with time after last intake of feed ([3]; chicken liver): lower with time | p.p.m. of Gentian Violet in liver ([3]; chicken liver, feed 7 ppm for 56 days, 4 hours after final dose, 240 min): 0.28 p.p.m. | p.p.m. of Gentian Violet in liver ([3]; chicken liver, feed 7 ppm for 56 days, 24 hours after final dose, 1440 min): 0.20 p.p.m. | p.p.m. of Gentian Violet in liver ([3]; chicken liver, feed 7 ppm for 56 days, 48 hours after final dose, 2880 min): 0.08 p.p.m. and 0.16 p.p.m. | p.p.m. of Gentian Violet in liver ([3]; chicken liver, feed 35 ppm for 56 days, 12 hours after final dose): 0.44 p.p.m. | p.p.m. of Gentian Violet in liver ([3]; chicken liver, feed 35 ppm for 56 days, 24 hours after final dose, 1440 min): 0.80 p.p.m. and 0.60 p.p.m. | concentration at 4 h ([3]; chicken, liver, po, feed 7 ppm for 56 days, 4 hours after final dose, read-out: p.p.m. of Gentian Violet in liver): 240 ng/g | concentration at 12 h ([3]; chicken, liver, po, feed 7 ppm for 56 days, 12 hours after final dose, read-out: p.p.m. of Gentian Violet in liver): 120 ng/g | concentration at 48 h ([3]; chicken, liver, po, feed 7 ppm for 56 days, 48 hours after final dose, read-out: p.p.m. of Gentian Violet in liver): 80 ng/g | concentration at 12 h ([3]; chicken, liver, po, feed 35 ppm for 56 days, 12 hours after final dose, read-out: p.p.m. of Gentian Violet in liver): 440 ng/g | concentration at 24 h ([3]; chicken, liver, po, feed 35 ppm for 56 days, 24 hours after final dose, read-out: p.p.m. of Gentian Violet in liver): 640 ng/g | concentration at 48 h ([3]; chicken, liver, po, feed 35 ppm for 56 days, 48 hours after final dose, read-out: p.p.m. of Gentian Violet in liver): 360 ng/g | toxic effects in poultry ([4]; in vivo): can kill the poultry or cause a decrease in the weight gain of the poultry | toxicity of residue levels to the consuming animal or poultry ([4]; levels given in U.S. Pat. No. 3,916,027): not toxic or harmful | acid stability ([5]; acid ethanol extract, pH lowered by evaporation): the acid would destroy the extracted gentian violet | light stability ([5]; ultra violet rays of sunlight): extremely sensitive to decomposition | biodegradability ([6]; contaminant in water and residue in poultry manure, ultra-violet rays of sunlight): biodegradable | stability in the digestive tract pH range ([6]; pH range of the digestive tract of animals and poultry): stable | solubility [7]: soluble in water, chloroform and ethanol | growth on mycotoxin-contaminated feed ([8]; feed containing gentian violet at the claimed levels): increased at a rate significantly faster | growth promotion ([8]; feed contaminated with aflatoxin): works as a growth promoter | sparing effect versus aflatoxin concentration ([8]; in vivo): appears to be a linear function of the concentration of the aflatoxin in the feed

— patent US4033721A, “Analysis of gentian violet residue in tissue” (priority 1976, dated 1977)
